From patent US20030148970A1, “Methods for specifically inhibiting histone deacetylase-4” (priority 2001, published 2003)
d = 2'-deoxy (DNA); m = 2'-O-methyl

Experiments:
HDAC 2 = HDAC 2 (Homo sapiens, UniProt Q92769); assay: histone deacetylase enzyme assay, HDAC 2; type: biochemical
Procedure: (§1) For the deacetylase assay, 20,000 cpm of an [^3H]-metabolically-labeled acetylated histone was used as a substrate. Histones were incubated with cloned recombinant human HDAC enzymes at 37° C. […] All assay conditions were pre-determined to be certain that each reaction was linear. Reactions were stopped by adding acetic acid (0.04 M final concentration) and HCl (250 mM, final concentration). The mixture was extracted with ethyl acetate, and the released [3H]-acetic acid was quantified by liquid scintillation counting. For the inhibition studies, HDAC enzyme was preincubated with test compounds for 30 minutes at 4° C. prior to the start of the enzymatic assay. IC50 values for HDAC enzyme inhibitors were identified with dose response curves for each individual compound and, thereby, obtaining a value for the concentration of inhibitor that produced fifty percent of the maximal inhibition.

human HDAC-3 = target: T1, human HDAC-3 (Homo sapiens, UniProt O15379); assay: histone deacetylase enzyme assay, HDAC-3; type: biochemical
T1 construct: made in house; host or cells: insect cells (baculovirus expression system)
T1 sequence (O15379 whole entry): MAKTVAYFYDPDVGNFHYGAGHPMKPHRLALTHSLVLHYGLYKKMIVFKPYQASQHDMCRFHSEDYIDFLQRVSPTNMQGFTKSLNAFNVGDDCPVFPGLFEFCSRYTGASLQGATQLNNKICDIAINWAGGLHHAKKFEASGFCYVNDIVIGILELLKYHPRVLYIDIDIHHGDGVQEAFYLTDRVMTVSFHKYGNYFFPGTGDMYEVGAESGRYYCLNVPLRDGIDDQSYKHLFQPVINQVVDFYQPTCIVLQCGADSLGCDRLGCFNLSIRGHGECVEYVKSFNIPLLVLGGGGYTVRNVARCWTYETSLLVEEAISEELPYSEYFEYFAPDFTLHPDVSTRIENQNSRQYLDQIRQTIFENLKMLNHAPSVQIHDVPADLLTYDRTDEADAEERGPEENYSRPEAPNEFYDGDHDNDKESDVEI
Procedure: (§2) The other HDAC isotypes, HDAC-3 and HDAC-4, were purified directly on an anti-Flag affinity column.
as §1

human HDAC-4 = target: T2, human HDAC-4 (Homo sapiens, UniProt P56524); assay: histone deacetylase enzyme assay, HDAC-4; type: biochemical
T2 construct: Flag; made in house; host or cells: human embryonic kidney 293 cells (calcium phosphate transfection)
T2 sequence (P56524 whole entry): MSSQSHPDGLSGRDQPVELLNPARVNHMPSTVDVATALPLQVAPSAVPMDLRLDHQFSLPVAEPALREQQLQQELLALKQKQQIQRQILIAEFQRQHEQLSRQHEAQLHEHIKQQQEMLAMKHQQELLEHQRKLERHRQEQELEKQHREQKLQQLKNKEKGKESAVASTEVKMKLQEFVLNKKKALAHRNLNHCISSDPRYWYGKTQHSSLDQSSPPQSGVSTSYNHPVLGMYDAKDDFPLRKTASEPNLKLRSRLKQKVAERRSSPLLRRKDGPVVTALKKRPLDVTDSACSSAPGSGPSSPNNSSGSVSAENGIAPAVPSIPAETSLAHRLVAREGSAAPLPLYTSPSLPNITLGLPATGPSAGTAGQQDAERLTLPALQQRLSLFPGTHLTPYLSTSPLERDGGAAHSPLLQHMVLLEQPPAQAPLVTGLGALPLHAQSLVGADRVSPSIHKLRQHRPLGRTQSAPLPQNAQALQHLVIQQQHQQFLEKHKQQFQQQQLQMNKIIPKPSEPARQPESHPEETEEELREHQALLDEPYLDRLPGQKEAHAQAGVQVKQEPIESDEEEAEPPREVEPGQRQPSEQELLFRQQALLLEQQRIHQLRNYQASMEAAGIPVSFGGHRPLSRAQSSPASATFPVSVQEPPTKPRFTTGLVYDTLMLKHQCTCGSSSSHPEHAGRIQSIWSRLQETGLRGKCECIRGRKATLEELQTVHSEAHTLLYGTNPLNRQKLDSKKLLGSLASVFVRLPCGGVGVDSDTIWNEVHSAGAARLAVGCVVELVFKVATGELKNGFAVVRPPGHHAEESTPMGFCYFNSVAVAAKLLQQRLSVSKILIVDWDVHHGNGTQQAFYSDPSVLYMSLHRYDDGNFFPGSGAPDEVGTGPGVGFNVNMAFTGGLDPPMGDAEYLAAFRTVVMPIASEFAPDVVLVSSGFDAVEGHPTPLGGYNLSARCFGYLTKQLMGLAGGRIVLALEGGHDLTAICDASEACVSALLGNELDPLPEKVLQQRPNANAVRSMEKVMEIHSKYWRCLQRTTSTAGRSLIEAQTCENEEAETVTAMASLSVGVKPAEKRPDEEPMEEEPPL
Procedure: Flag-tagged human HDAC-4 enzyme was produced in human embronic kidney 293 cells after transformation by the calcium phosphate precipitation method. Briefly, 293 cells were cultured in Dulbecco's Modified Eagle Medium (DMEM) containing 10% fetal bovine serum and antibiotics. Plasmid DNA encoding Flag-tagged human HDAC-4 was precipitated by ethanol and resuspend in sterile water. DNA-calcium precipitates, formed by mixing DNA, calcium choloride and 2×HEPES-buffered saline solution, were left on 293 cells for 12-16 hours. Cells were return to serum-contained DMEM medium and harvested at 48 hour post transfection for purification of Flag-tagged HDAC-4 enzyme.
as §2, §1

human HDAC-6 = target: T3, human HDAC-6 (Homo sapiens, UniProt Q9UBN7); assay: histone deacetylase enzyme assay, HDAC-6; type: biochemical
T3 construct: made in house; host or cells: insect cells (baculovirus expression system)
T3 sequence (Q9UBN7 1-1215): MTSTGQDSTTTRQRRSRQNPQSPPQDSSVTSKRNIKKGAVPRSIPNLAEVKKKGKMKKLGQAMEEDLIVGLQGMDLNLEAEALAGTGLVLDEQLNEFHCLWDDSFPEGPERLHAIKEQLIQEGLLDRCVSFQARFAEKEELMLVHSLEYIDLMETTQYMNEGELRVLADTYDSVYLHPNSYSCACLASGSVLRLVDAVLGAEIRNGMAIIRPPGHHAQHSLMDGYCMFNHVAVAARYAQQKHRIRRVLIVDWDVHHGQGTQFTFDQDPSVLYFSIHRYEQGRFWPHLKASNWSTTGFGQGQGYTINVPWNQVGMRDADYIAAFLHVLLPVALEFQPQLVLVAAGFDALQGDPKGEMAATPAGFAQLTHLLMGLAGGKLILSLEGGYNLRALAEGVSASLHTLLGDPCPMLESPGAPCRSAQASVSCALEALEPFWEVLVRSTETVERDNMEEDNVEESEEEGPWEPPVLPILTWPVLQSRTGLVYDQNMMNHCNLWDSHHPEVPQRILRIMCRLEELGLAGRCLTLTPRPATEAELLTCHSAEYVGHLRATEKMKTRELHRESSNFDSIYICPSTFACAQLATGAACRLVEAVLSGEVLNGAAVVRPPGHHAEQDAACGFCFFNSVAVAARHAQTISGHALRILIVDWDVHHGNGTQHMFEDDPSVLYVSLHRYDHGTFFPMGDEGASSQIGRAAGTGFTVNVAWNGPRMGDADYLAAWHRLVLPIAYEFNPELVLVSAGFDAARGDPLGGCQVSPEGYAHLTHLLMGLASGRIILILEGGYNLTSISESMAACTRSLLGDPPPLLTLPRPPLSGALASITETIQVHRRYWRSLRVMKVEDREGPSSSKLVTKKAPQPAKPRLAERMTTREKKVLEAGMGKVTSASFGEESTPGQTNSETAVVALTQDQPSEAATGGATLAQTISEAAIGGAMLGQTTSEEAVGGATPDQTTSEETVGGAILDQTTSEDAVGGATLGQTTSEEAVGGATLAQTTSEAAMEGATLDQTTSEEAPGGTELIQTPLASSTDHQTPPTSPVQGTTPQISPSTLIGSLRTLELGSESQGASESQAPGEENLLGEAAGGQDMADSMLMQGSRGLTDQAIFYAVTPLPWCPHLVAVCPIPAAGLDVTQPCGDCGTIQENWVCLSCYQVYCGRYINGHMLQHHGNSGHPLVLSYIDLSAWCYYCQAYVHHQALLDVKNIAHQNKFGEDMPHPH
Procedure: as §2, §1

[1] = test system: acetylated histone H-4 in T24 human bladder cancer cells; assay: inhibition of HDAC activity in whole cells (acetylated histone H-4 Western); type: cell-based; details: 16 hours
Procedure: T24 human bladder cancer cells (ATCC, Manassas, Va.) growing in culture were incubated with test compounds for 16 hours. Histones were extracted from the cells by standard procedures (see e.g. Yoshida et al., supra) after the culture period. Twenty μg total core histone protein was loaded onto SDS/PAGE and transferred to nitrocellulose membranes, which were then reacted with polyclonal antibody specific for acetylated histone H-4 (Upstate Biotech Inc., Lake Placid, […].). Horse Radish Peroxidase conjugated secondary antibody was used at a dilution of 1:5000 to detect primary antibody binding. The secondary antibody binding was visualized by use of the Enhanced chemiluminescence (ECL) detection kit (Amersham-Pharmacia Biotech., Inc., Piscataway, N.J.). After exposure to film, acetylated H-4 signal was quantitated by densitometry.

[2] = test system: human colon cancer HCT116 cells; assay: MTT assay of cell proliferation and cytotoxicity; type: cell-based; details: HCT-116, 48 hours
Procedure: Four thousand five hundred (4,500) human colon cancer HCT116 cells (ATCC, Manassas, Va. were used in an MTT (3-[4,5-dimethylthiazol-2-yl]-2,5 diphenyl tetrazolium bromide) assay to quantitatively determine cell proliferation and cytotoxicity. Typically, HCT116 cells were plated into each well of the 96-well tissue culture plate and left overnight to attach to the plate. Compounds at various concentrations (1 uM, 5 uM and 25 uM, in DMSO) were added in triplicate into the culture media (final DMSO concentration 1%) and incubated for 48 hours. MTT solution (obtained from Sigma as powder) was added and incubated with the cells for 4 hours at 37° C. in incubator with 5% CO2. During the incubation, viable cells convert MTT to a water-insoluble formazan dye. Solubilizing buffer (50% N,N-dimethylformamide, 20% SDS, pH 4.7) was added to cells and incubate for overnight at 37C in incubator with 5% CO2. Solubilized dye was quantitated by colorimetric reading at […] using a reference of […].

cell cycle arrest = type: cell-based
p21 = p21 induction by small molecules; type: cell-based
[3] = test system: human colon cancer cells (HCT116); assay: tumor growth in a mouse model, colon; type: in vivo, BALB/c nude mice; details: 40 mg/kg body weight/day, i p; vs vehicle-treated mice
Procedure: Female BALB/c nude mice were obtained from Charles River Laboratories (Charles River, NY) and used at age 8-10 weeks. Human prostate tumor cells (DU145, 2×10^6) or human colon cancer cells (HCT116; 2×10^6) or small lung core A549 2×10^6 were injected subcutaneously in the animal's flank and allowed to form solid tumors. Tumor fragments were serially passaged a minimum of three times, then approximately 30 mg tumor fragments were implanted subcutaneously through a small surgical incision under general anaesthesia. Small molecule inhibitor administration by intraperotineal or oral administration was initiated when the tumors reached a volume of 100 mm^3. For intraperotineal administration, small molecule inhibitors of HDAC (40-50 mg/kg body weight/day) were dissolved in 100% DMSO and administered daily intraperitoneally by injection. For oral administration, small molecule inhibitors of HDAC (40-50 mg/kg body weight/days) were dissolved in a solution containing 65% polyethylene glycol 400 (PEG 400 (Sigma-Aldridge, Mississauga, Ontario, Calif., Catalogue No. P-3265), 5% ethanol, and 30% water. Tumor volumes were monitored twice weekly up to 20 days. Each experimental group contained at least 6-8 animals. Percentage inhibition was calculated using volume of tumor from vehicle-treated mice as controls.

HDAC-4 mRNA = assay: Northern blot of HDAC-4 mRNA in A549 cells; type: cell-based, human; details: escalating doses (50 nM or 100 nM), 24 hours
Procedure: Human cancer A549 cells were treated with escalating doses of AS1, AS2 or MM2 oligos for 24 hours. Total RNAs were harvested for Northern analysis.
Briefly, human A549 and/or T24 human bladder carcinoma cells were seeded in 10 cm tissue culture dishes one day prior to oligonucleotide treatment. The cell lines were obtained from the American Type Culture Collection (ATCC) (Manassas, Va.) and were grown under the recommended culture conditions. Before the addition of the oligonucleotides, cells were washed with PBS (phosphate buffered saline). Next, lipofectin transfection reagent (GIBCO BRL Mississauga, Ontario, Calif.), at a concentration of 6.25 μg/ml, was added to serum free OPTIMEM medium (GIBCO BRL, Rockville, Md.), which was then added to the cells. The oligonucleotides to be screened were then added directly to the cells (i.e., one oligonucleotide per plate of cells). Mismatched oligonucleotides were used as controls. The same concentration of oligonucleotide (e.g., 50 nM) was used per plate of cells for each oligonucleotide tested.
Cells were harvested, and total RNAs were analyzed by Northern blot analysis. Briefly, total RNA was extracted using RNeasy miniprep columns (QIAGEN). Ten to twenty μg of total RNA was run on a formaldehyde-containing 1% agarose gel with 0.5 M sodium phosphate (pH 7.0) as the buffer system. […]

human HDAC-4 protein = assay: Western blot of HDAC-4 protein in A549 cells; type: cell-based; details: 50 nM, 48 hours
Procedure: Human cancer A549 cells were treated with AS1, AS2 or MM2 oligos for 48 hours. Whole cell lysates were analyzed by Western blotting using antibodies specific against human HDAC4.
OSDN treatment conditions were as previously described.
Cells were lysed in buffer containing 1% Triton X-100, 0.5% sodium deoxycholate, 5 mM EDTA, 25 mM Tris-HCl, pH 7.5, plus protease inhibitors. Total protein was quantified by the protein assay reagent from Bio-Rad (Hercules, Calif.). 100 ug of total protein was analyzed by SDS-PAGE. Next, total protein was transferred onto a PVDF membrane and probed with various HDAC-specific primary antibodies. Rabbit anti-HDAC-1 (H-51), anti-HDAC-2 (H-54) antibodies (Santa Cruz Biotechnologies, Santa Cruz, Calif.) were used at 1:500 dilution. Rabbit anti-HDAC-3 antibody (Sigma, St. Louis, Mo.) was used at a dilution of 1:1000. Anti-HDAC-4 antibody was prepared as previously described (Wang, S. H. et al., (1999) Mol. Cell. Biol. 19:7816-27), and was used at a dilution of 1:1000. Anti-HDAC-6 antibody was raised by immunizing rabbits with a GST fusion protein containing a fragment of HDAC-6 protein (amino acid #990 to #1216, GenBank Accession No. AAD29048). Rabbit antiserum was tested and found only to react specifically to the human HDAC-6 isoform. HDAC-6 antiserum was used at 1:500 dilution in Western blots to detect HDAC-6 in total cell lysates. […]

Human A549 cells = assay: cDNA array analysis of gene transcription; type: cell-based; details: A549, 50 nM, two days
Excerpt: Fold change on transcriptions was compared to that of HDAC-4 mismatch oligo (MM2) treated cells;

Chain of HDAC 2 (Q92769 whole entry): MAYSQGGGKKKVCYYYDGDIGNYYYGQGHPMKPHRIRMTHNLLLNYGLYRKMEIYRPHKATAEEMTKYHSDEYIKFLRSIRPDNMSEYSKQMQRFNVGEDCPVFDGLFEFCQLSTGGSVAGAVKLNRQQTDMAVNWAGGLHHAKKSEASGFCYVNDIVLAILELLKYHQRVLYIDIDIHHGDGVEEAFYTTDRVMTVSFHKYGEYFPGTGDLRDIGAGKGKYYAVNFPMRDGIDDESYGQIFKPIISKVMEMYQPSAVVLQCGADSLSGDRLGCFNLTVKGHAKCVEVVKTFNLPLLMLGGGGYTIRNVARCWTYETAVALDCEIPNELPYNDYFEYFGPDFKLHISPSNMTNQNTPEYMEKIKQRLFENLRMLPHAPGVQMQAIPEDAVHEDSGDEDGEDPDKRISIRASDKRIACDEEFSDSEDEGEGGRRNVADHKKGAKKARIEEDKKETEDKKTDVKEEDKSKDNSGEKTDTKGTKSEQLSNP

Molecule	IC50 (HDAC 2) [µM]	IC50 (human HDAC-3) [µM]	IC50 (human HDAC-4) [µM]	IC50 (human HDAC-6) [µM]	effective concentration for histone H4 acetylation [1] [µM]	IC50 [2] [µM]	cell cycle arrest EC (cell cycle arrest) [µM]	p21 induction (p21) [µM]	expression of HDAC-4 mRNA (HDAC4 expression at RNA level) (HDAC-4 mRNA)	expression of HDAC-4 protein (human HDAC-4 protein)	other results
Nc1ccccc1NC(=O)CCCCCCC(=O)c1ccc(-c2ccccc2)cc1 [MG 365 0]	4	> 20	23	> 50	10	5	9	10	–	–	% inh. of tumor formation in vivo, colon [3]: 53 (40, i p) %
HDAC4 AS2: 5′-TACAGTCCATGCAACCTCCA-3′, antisense to human HDAC4 3′-UTR, AB006626 (sugars from the 5' end m4 d12 m4, all phosphorothioate, methylation of C and T or U not given here)	–	–	–	–	–	–	–	–	can inbibit HDAC4 expression at RNA level in a dose-dependent manner	can inbibit HDAC4 expression at protein level	–
HDAC-4 AS1: 5′-GCTGCCTGCCGTGCCCACCC-3′, antisense to human HDAC4 5′-UTR, AB006626 (sugars from the 5' end m4 d12 m4, all phosphorothioate, methylation of C and T or U not given here)	–	–	–	–	–	–	–	–	can inbibit HDAC4 expression at RNA level in a dose-dependent manner	can inbibit HDAC4 expression at protein level	fold change, CDK4 (Human A549 cells; vs HDAC-4 mismatch oligo (MM2)): −3 fold; fold change, Egr-1 (Human A549 cells; vs HDAC-4 mismatch oligo (MM2)): 3 fold; fold change, GADD45 (Human A549 cells; vs HDAC-4 mismatch oligo (MM2)): 3 fold; fold change, GADD153 (Human A549 cells; vs HDAC-4 mismatch oligo (MM2)): 6 fold; fold change, IL-15 (Human A549 cells; vs HDAC-4 mismatch oligo (MM2)): 4 fold; fold change, IRF (Human A549 cells; vs HDAC-4 mismatch oligo (MM2)): 2 fold; fold change, Notch-4 (Human A549 cells; vs HDAC-4 mismatch oligo (MM2)): −3 fold; fold change, PLK (Human A549 cells; vs HDAC-4 mismatch oligo (MM2)): −4 fold; fold change, basic FGF (Human A549 cells; vs HDAC-4 mismatch oligo (MM2)): 2 fold; fold change, cyclin A2 (Human A549 cells; vs HDAC-4 mismatch oligo (MM2)): −3 fold; fold change, cyclin B1 (Human A549 cells; vs HDAC-4 mismatch oligo (MM2)): −3 fold; fold change, p21 (Human A549 cells; vs HDAC-4 mismatch oligo (MM2)): 4 fold; fold change, topo II α (Human A549 cells; vs HDAC-4 mismatch oligo (MM2)): −5 fold; number of genes with altered expression (Human A549 cells; out of 588 genes): 39 genes
Nc1ccccc1NC(=O)CCCCCCC(=O)c1ccc(-c2ccccc2)nc1 [MG 385 9]	8	18	13	> 50	5	5	3	5	–	–	–
